According to ChEMBL document CHEMBL6177973, “A Novel Compound 3a-M1, from Metabolites of Sinomenine Derivative 3a, Exerts Potent Anti-Aplastic Anemia Activity via IP3R/ORAI-Mediated CTL Ferroptosis” (J Med Chem, 2025):

Assays:
Assay type in all cases: functional, cell-based
RAW264.7 = experiment: Cytotoxicity against mouse RAW264.7 cells assessed as inhibition of cell viability incubated for 72 hrs by CCK8 assay; settings: RAW264.7, 72 h
IEC-6 = experiment: Cytotoxicity against rat IEC-6 cells assessed as inhibition of cell viability incubated for 72 hrs by CCK8 assay; settings: IEC-6, 72 h
THP-1 = experiment: Cytotoxicity against human THP-1 cells assessed as inhibition of cell viability incubated for 72 hrs by CCK8 assay; settings: THP-1, 72 h
CTLL-2 = experiment: Cytotoxicity against mouse CTLL-2 cells assessed as inhibition of cell viability incubated for 72 hrs by CCK8 assay; settings: CTLL-2, 72 h
NRK-52E = experiment: Cytotoxicity against rat NRK-52E cells assessed as inhibition of cell viability incubated for 72 hrs by CCK8 assay
HepG2 = experiment: Cytotoxicity against human HepG2 cells assessed as inhibition of cell viability incubated for 72 hrs by CCK8 assay; settings: HepG2, 72 h
HL-60 = experiment: Cytotoxicity against human HL-60 cells assessed as inhibition of cell viability incubated for 72 hrs by CCK8 assay; settings: HL-60, 72 h

For `C/C=C/C[C@@H](C)[C@@H](O)[C@H]1C(=O)N[C@@H](CC)C(=O)N(C)CC(=O)N(C)[C@@H](CC(C)C)C(=O)N[C@@H](C(C)C)C(=O)N(C)[C@@H](CC(C)C)C(=O)N[C@@H](C)C(=O)N[C@H](C)C(=O)N(C)[C@@H](CC(C)C)C(=O)N(C)[C@@H](CC(C)C)C(=O)N(C)[C@@H](C(C)C)C(=O)N1C` [CYCLOSPORINE], which IC50 (RAW264.7) is on record?
The IC50 was 14.2 µM.

And the IC50 (IEC-6)?
The IC50 was 9.14 µM.

And the IC50 (THP-1)?
Its IC50 is 4.36 µM.

And the IC50 (CTLL-2)?
Its IC50 is 2.72 µM.

What about the IC50 (NRK-52E) of the same compound?
Its IC50 is 35.4 µM.

What about the IC50 (HepG2) of the same compound?
The IC50 was 11.7 µM.

What about the IC50 (HL-60) of the same compound?
The IC50 was 8.14 µM.
